Values quoted from earlier work, collected in patent US12575570B2, “Aqueous composition of Epyrifenacil, Mesotrione and Pyroxasulfone” (Valent U.S.A. LLC, priority 2020, dated 2026).

## CS(=O)(=O)c1ccc(C(=O)C2C(=O)CCCC2=O)c([N+](=O)[O-])c1 [mesotrione, 2-(4-mesyl-2-nitrobenzoyl)cyclohexane-1,3-dione]
  water solubility: 160 ppm
